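Abbreviation: GI50, concentration required for 50% inhibition of growth. TGI is the concentration that stops growth completely.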
Key:
Assay in all cases: NCI-60 cell line screen, 384-well format; in the data active = GI50 below about 0.43 µM; inactive = the rest
MDA-MB-468 breast = system: MDA-MB-468 breast
HS 578T breast = system: HS 578T breast
T-47D breast = system: T-47D breast
SF-295 CNS = system: SF-295 CNS
NCI-H226 lung = system: NCI-H226 lung
OVCAR-8 ovarian = system: OVCAR-8 ovarian
ACHN renal = system: ACHN renal
KM12 colon = system: KM12 colon
UO-31 renal = system: UO-31 renal
NCI/ADR-RES ovarian = system: NCI/ADR-RES ovarian
OVCAR-3 ovarian = system: OVCAR-3 ovarian
IGROV1 ovarian = system: IGROV1 ovarian
PC-3 prostate = system: PC-3 prostate

CC(C)C[C@H](NC(=O)[C@H](Cc1ccccc1)NC(=O)c1cnccn1)B(O)O
active: GI50 (MDA-MB-468 breast) < 10 nM | GI50 (HS 578T breast) < 10 nM | GI50 (T-47D breast) < 10 nM | GI50 (SF-295 CNS) < 10 nM | GI50 (NCI-H226 lung) < 10 nM | GI50 (OVCAR-8 ovarian) < 11.1 nM | GI50 (ACHN renal) < 10 nM | GI50 (KM12 colon) < 10 nM | GI50 (UO-31 renal) < 10 nM | GI50 (NCI/ADR-RES ovarian) 32.1 nM | GI50 (OVCAR-3 ovarian) < 10 nM | GI50 (IGROV1 ovarian) < 11 nM | GI50 (PC-3 prostate) < 10 nM
< 16 nM: TGI (IGROV1 ovarian)
< 15.8 nM: TGI (OVCAR-8 ovarian)
92.6 nM: TGI (NCI/ADR-RES ovarian)
< 10 nM: TGI (MDA-MB-468 breast) | TGI (HS 578T breast) | TGI (T-47D breast) | TGI (SF-295 CNS) | TGI (NCI-H226 lung) | TGI (ACHN renal) | TGI (UO-31 renal) | TGI (OVCAR-3 ovarian)
< 12.9 nM: TGI (KM12 colon)
< 13.7 nM: TGI (PC-3 prostate)

Source: PubChem BioAssay (NCI)
